Data reported in patent US8552161B2, “Saponin compounds, methods of preparation thereof, use thereof and pharmaceutical compositions” (Uniwersytet W Bialymstoku, priority 2009, dated 2013).

Tests used:
Assay type in all cases: cell-based
[1] = system: T-lymphoblastic leukemia cell line CEM; assay: Calcein AM cytotoxicity assay, CEM; conditions: Calcein AM assay, 72 h; means ± SD, three independent experiments in triplicate
Experimental: (§1) Stock solutions (10 mmol/l) of the tested compounds were prepared by dissolving relevant quantity of the substance in DMSO. […] Calcein AM was obtained from Molecular Probes (Invitrogen Corporation, CA, USA).
(§2) All cell lines were cultured in DMEM medium (Sigma, Mo., USA). Medium was supplemented with 10% heat-inactivated fetal bovine serum, 2 mmol/l L-glutamine and 1% penicillin-streptomycin. The cell lines were maintained under standard cell culture conditions at 37° C. and 5% CO2 in a humid environment. Cells were subcultured twice or three times a week using the standard trypsinization procedure.
(§3) All cell lines were cultured in DMEM medium (Sigma, Mo., USA) supplemented with 10% fetal calf serum, 2 mM glutamine, 100 U/ml penicillin and 100 μg/ml streptomycin, at 37° C. in a fully humidified atmosphere containing 5% CO2. Suspensions of these lines (ca. 1.0×10^5 cells/ml) were placed in 96-well microtitre plates and after 3 h of stabilization the tested compounds were added in serially diluted concentrations. Saponins were dissolved in dimethylsulfoxide (DMSO) before addition to cultures. Control cultures were treated with DMSO alone. The final concentration of DMSO in the reaction mixtures never exceeded 0.6%. Four-fold dilutions of the intended test concentration were added at time zero in 20 μl aliquots to the microtitre plate wells. Usually, each test compound was evaluated at six 4-fold dilutions and in routine testing; the highest well concentration was 50 μM, although this varied in a few cases, depending on the test compound. After 72 h of culture, the cells were incubated with Calcein AM solution (Molecular Probes) for 1 h. The fluorescence of viable cells was quantified using a Fluoroscan Ascent instrument (Microsystems).

[2] = system: cervical carcinoma cell line HeLa; assay: Calcein AM cytotoxicity assay, HeLa; conditions: 72 h, means ± SD, three independent experiments in triplicate
Experimental: as §1, §2, §3

[3] = system: CEM cells; assay: Flow cytometry cell cycle and apoptosis (subG1) analysis
Experimental: The leukemia cancer CEM cells were trypsinized, seeded in 6 well plates, and immediately incubated with the respective compounds. […] Triton X-100, and 50 μg/ml propidium iodide in PBS. DNA content was assessed with a flow cytometer (Cell Lab Quanta SC—MPL, Beckman Coulter, Calif., USA). In a histogram analysis, distribution of cells into the subG1 (“apoptotic cells”), the G0/G1, S and the G2/M peak was quantified using software MultiCycle AV (Phoenix Flow Systems, CA, USA).

[4] = system: leukemia cells (CEM); assay: Western blot analysis of apoptosis related proteins; conditions: 24 h
Experimental: The cells were seeded in a density 2.2×10^4 cells/cm^2 using culture medium in 100-mm culture dishes. Immediately the cells were treated by novel saponins: 3 (1; 2.5; 5 μM), 6 (0.1; 0.25; 0.5 μM) and 7 (5; 7.5; 10 μM). DMSO was used as a vehicle for controls. After 24 h treatment, the cells were washed three times with cold PBS (10 mM, pH 7.4) and lysed in ice-cold protein extract RIPA buffer (20 mM Tris-HCl, pH 7.4, 5 mM EDTA, 2 mM EGTA, 100 mM NaCl, 2 mM NaF, 0.2% Nonidet P-40, 30 mM PMSF, 1 mM DTT, […] of aprotinin and leupeptin). The lysate was collected into microfuge tube and incubated on ice for 1 h. It was then cleared by centrifugation at 10,000×g for […] at 4° C., and supernatant was collected, aliquoted, and stored at −80° C. Proteins in lysates were quantified by the Bradford method and then diluted with Laemmli electrophoresis buffer. Proteins were then separated on 10% or 12% SDS-polyacrylamide gels, transferred onto nitrocellulose membranes (Bio-Rad Laboratories, CA, USA) and stained with Ponceau S to check equal protein loading. The membranes were blocked with 5% (w/v) non-fat dry milk and 0.1% Tween-20 in PBS for 2 h and probed with the specific primary antibodies overnight. After washing in PBS and PBS with 0.1% Tween-20, the membranes were probed with horseradish peroxidase-conjugated secondary antibodies and visualized with chemiluminescent detection reagent West Pico Supersignal (Thermo Fisher Scientific, Rockford, USA). To confirm equal protein loading, immunodetection was performed with the anti-α-tubulin monoclonal antibody. The experiments were repeated three times. The protein expressions in treated cells were compared to untreated controls.

C/C=C/C(=O)OC[C@@H](C)[C@@]1(O)[C@@H](O[C@@H]2OC[C@H](O)[C@H](O[C@@H]3OC[C@@H](O)[C@H](O)[C@H]3OC(=O)c3ccc(OC)cc3)[C@H]2OC(C)=O)C[C@H]2[C@@H]3CC=C4C[C@@H](O)CC[C@]4(C)[C@H]3CC[C@@]21C [Compound 7, (20R)-21-O-[(E)-but-2-enoyl]-20-methylpregn-5-ene-3β,16β,17α,21-tetraol 16-O-{2-O-(4-methoxybenzoyl)-β-D-xylopyranosyl-(1→3)-2′-O-acetyl-α-L-arabinopyranoside}]
IC50 [1]: 0.34 ± 0.04 µM
IC50 [2]: 1.94 ± 0.05 µM
subG1 phase of the cell cycle (apoptotic cells) ([3]; CEM cell line after treatment): increase in subG1 phase
amount of debris (subG1) compared with untreated controls ([3]; CEM cells, 24 h (FIG. 3)): 3 fold
distribution of CEM cells in cell cycle phases (FIG. 2) ([3]; CEM cells, increasing concentrations): increased the number of S-phase and G2/M cells with concomitant decrease of G0/G1 cells in dose-dependent manner
Apoptosis subG1 ([3]; CEM, 24 h, 3 μM): 15%
Cell cycle distribution G0/G1 ([3]; CEM, 24 h, 3 μM): 14%
Cell cycle distribution G2/M ([3]; CEM, 24 h, 3 μM): 30%
Cell cycle distribution S ([3]; CEM, 24 h, 3 μM): 41%
PARP (Western blot) ([4]; dose-dependent (FIG. 5)): cleavage of PARP
antiapoptotic Bcl-2 protein ([4]; dose-dependent (FIG. 5)): increased
caspase-3 (Western blot) ([4]; dose-dependent (FIG. 5)): accumulation of caspase-3
expression of tumour suppressor protein p53 ([4]; dose-dependent (FIG. 5)): enhanced expression
phosphorylation of pRb S780 ([4]; same concentrations (FIG. 5)): increase of phosphorylation of pRb S780
